# Experimental data reported in article PMC8921064 (Archives of Toxicology, 2022).
# Where two headings read alike, the source gives them in different places.
# Assays:
# [1] = test system: Salmonella typhimurium TA100; test: Reverse mutation assay (Ames test), TA100; conditions: for Increase in the number of revertants compared to the concurrent solvent control: TA100, presence of 5% S9-mix, 10–100 µg; for Mutagenicity (conclusion): TA100, positive if more than twofold over control
# Experimental: (§1) Six concentrations of each compound were tested in triplicate in the absence and presence of 5% (v/v) S9-mix prepared from the livers of Aroclor 1254 treated Sprague–Dawley rats. The S9-mix contained 4 mM NADP, 5.8 mM glucose-6-phosphate, 0.1 M sodium phosphate pH 7.4, 8 mM MgCl2, 33 mM KCl and 5% S9 homogenate. Fresh bacterial cultures were prepared overnight to reach 10^9 cells/ml. The following solutions were pre-incubated in a rotating incubator at 70 rpm and 37 °C, and contained either 0.5 ml S9-mix (in case of S9 presence) or 0.5 ml 0.1 M potassium phosphate pH 7.4 (in case of S9 absence), 0.1 ml of a fresh bacterial culture (10^9 cells/ml) of TA98 or TA100, and 10–100 µg test compound. Top agar was melted and heated to 45 °C. After preincubation, the substrate solutions were added to 3 ml of the molten top agar and mixed by vortexing and the top agar mixture was poured onto a minimal glucose agar plate. After solidification of the top agar, the plates were incubated at 37 °C for 48 h. The number of revertant colonies per plate was automatically counted with the Instem Sorcerer Colony Counter (Staffordshire, UK). In the absence of S9-mix, 2-nitrofluorene (NF) and methylmethanesulfonate (MMS) were tested as positive controls for incubations with TA98 and TA100, respectively. In the presence of S9-mix, 2-aminoanthracene (2AA) was tested as a positive control in both TA98 and TA100. DMSO was tested as a solvent control in both tester strains.
# S. typhimurium TA98 = conditions: cited from earlier work
# [2] = Rat liver microsomal incubation, metabolite formation quantified by UPLC; conditions: Sprague-Dawley, rat, microsomes, pH 7.4
# Experimental: (§2) The incubation mixtures were prepared and incubated in glass vials to avoid plastic binding of the substrates. The glass vials were capped to prevent substrate loss due to volatility. After preincubation of the incubation mixture at 37 °C for 1 min, the enzymatic reaction was initiated by adding microsomes to the incubation mixture which was subsequently incubated at 37 °C for 20 min. The reaction was terminated by adding 100 µl ice-cold acetonitrile followed by vortexing. After 5 min centrifugation at 5000 rpm (4000 × g), 4 °C, the supernatant was collected for ultraperformance liquid chromatography (UPLC) analysis. […] Therefore, a diisopropylether (DIPE) extraction of the metabolites was performed after the reaction was stopped by the addition of 20 µl 10% HClO4. To this end, the incubation mixture (total volume of 220 µl) was extracted three times with 1 ml DIPE. Each time, the upper organic layer was collected and the DIPE was subsequently evaporated from the combined organic fractions with a gentle stream of nitrogen. The residues were dissolved in 100 µl methanol and analyzed by UPLC.
# (§3) The metabolites formed were analyzed and quantified using an Acquity UPLC system equipped with a photodiode array (PDA) detector (Waters, Milford, MA). The metabolites and their parent compound were separated on a reverse phase Acquity UPLC® BEH C18 column ([…], 1.7 µm, Waters, Milford, MA) and detected at wavelengths ranging from 190 to 400 nm. Eluent A was nano-pure water containing 0.1% trifluoroacetic acid (v/v), and eluent B was acetonitrile containing 0.1% trifluoroacetic acid (v/v). The gradient elution started from 90% A and 10% B applied from 0.0 min to 0.5 min, which was changed to 0% A and 100% B from 0.5 to 15.5 min and then kept at 0% A and 100% B from 15.5 min to 18.5 min, changed back to 90% A and 10% B from 18.5 to 18.6 min and then maintained at the starting conditions from 18.6 min until 22 min. The total run time was 22 min using a flow rate of 0.6 ml/min. The temperature of the column was set at 40 °C and that of the autosampler at 10 °C during the UPLC analysis. The injection volume was 3.5 µl. Metabolites were quantified using their peak area at the wavelength specified in Table 1, using calibration curves of available reference compounds. Metabolites were identified by comparing their retention time (RT) and UV spectrum to those of reference chemicals on UPLC. When reference chemicals were not available, metabolite identification by gas chromatography-triple quadrupole mass spectrometry (GC–MS/MS) was performed. The minor metabolites were identified by elution time and mass spectra both on UPLC and GC–MS/MS, and by comparison with available elution and spectral information from the literature.
# (§4) The metabolite concentrations in the microsomal incubation mixtures as quantified by UPLC were used to calculate the rate of the enzymatic conversions in pmol/min/mg microsomal protein. The kinetic parameters KM and Vmax were obtained using a nonlinear regression curve fit applying the Michaelis Menten equation in GraphPad Prism 5 (San Diego, USA). To compare the catalytic efficiency of formation of the different metabolites the intrinsic clearance (Clint) was calculated as Vmax divided by KM.
# [3] = test system: rat liver microsomes (RLM); test: as above; conditions: RLM
# Experimental: as §2, §3, §4
# [4] = test system: Salmonella typhimurium TA98; test: Reverse mutation assay (Ames test), TA98; conditions: for Increase in the number of revertants compared to the concurrent solvent control: TA98, presence of 5% S9-mix, 10–100 µg; for Mutagenicity (conclusion): TA98, positive if more than threefold over control
# Experimental: as §1, with “and 10–100 µg test compound.” left out
# [5] = test system: Chinese hamster bone marrow cells; design: method as in Bayer [1978]; conditions: in vivo exposure; ref Bayer [1978]; cited from earlier work
# S. typhimurium TA100 = conditions: cited from earlier work
# [6] = test system: human liver microsomes (HLM); test: Human liver microsomal incubation, metabolite formation quantified by UPLC; conditions: HLM
# Experimental: as §2, §3, §4
# [7] = as above; conditions: human, microsomes, pH 7.4
# Experimental: as §2, §3, §4
# mouse skin = test system: mouse skin; design: method as in Buening et al. [1979]; LaVoie et al. [1981]; conditions: mouse skin painting; ref Buening et al. [1979]; LaVoie et al. [1981]; cited from earlier work
# [8] = ref Bucker et al. [1979], Wood et al. [1979]
# [9] = ref Katarzyna Rudnicka et al. [2013]
smiles,measurement,setting,value
c1ccc2c(c1)ccc1ccccc12 [Phenanthrene],Increase in the number of revertants compared to the concurrent solvent control,[1],No increases in the number of revertants were observed
same,Mutagenicity (conclusion),[1],tested negative for mutagenicity
same,Mutagenicity,S. typhimurium TA98; [8],Neither phenanthrene nor its dihydrodiol metabolites were found to be mutagenic
same,microsomal CLint,[2],7.3 µL/min/mg
same,"Vmax, formation of 1,2-Dihydro-phenanthrene-diol RT = 3.57 min",[3]; substrate Phenanthrene,79.3 ± 6.5 pmol/min/mg microsomal protein
same,"Vmax, formation of 1-Phenanthrol RT = 6.31 min",[3]; substrate Phenanthrene,123.9 ± 19.2 pmol/min/mg microsomal protein
same,"Vmax, formation of 3,4-Dihydro-phenanthrene-diol RT = 2.13 min",[3]; substrate Phenanthrene,10.3 ± 1.8 pmol/min/mg microsomal protein
same,"Vmax, formation of 3-Phenanthrol RT = 6.02 min",[3]; substrate Phenanthrene,21.3 ± 2.0 pmol/min/mg microsomal protein
same,"Vmax, formation of 4-Phenanthrol RT = 6.55 min",[3]; substrate Phenanthrene,24.5 ± 5.5 pmol/min/mg microsomal protein
same,"Vmax, formation of 9,10-Dihydro-phenanthene-diol RT = 3.28 min",[3]; substrate Phenanthrene,9.8 ± 0.6 pmol/min/mg microsomal protein
same,"Vmax, formation of 9,10-Dihydro-phenanthene-diol RT = 3.38 min",[3]; substrate Phenanthrene,529.2 ± 43.2 pmol/min/mg microsomal protein
same,Increase in the number of revertants compared to the concurrent solvent control,[4],No increases in the number of revertants were observed
same,Mutagenicity (conclusion),[4],tested negative for mutagenicity
same,DNA adducts,[5],no phenanthrene DNA adducts could be detected
same,Mutagenicity,S. typhimurium TA100; [8],Neither phenanthrene nor its dihydrodiol metabolites were found to be mutagenic
same,"Vmax, formation of 1,2-Dihydro-phenanthrene-diol RT = 3.57 min",[6]; substrate Phenanthrene,152.5 ± 14.4 pmol/min/mg microsomal protein
same,"Vmax, formation of 1-Phenanthrol RT = 6.31 min",[6]; substrate Phenanthrene,125.2 ± 5.4 pmol/min/mg microsomal protein
same,"Vmax, formation of 3,4-Dihydro-phenanthrene-diol RT = 2.13 min",[6]; substrate Phenanthrene,61.5 ± 6.3 pmol/min/mg microsomal protein
same,"Vmax, formation of 3,4-Dihydro-phenanthrene-diol RT = 2.24 min",[6]; substrate Phenanthrene,6.0 ± 0.3 pmol/min/mg microsomal protein
same,"Vmax, formation of 4-Phenanthrol RT = 6.55 min",[6]; substrate Phenanthrene,18.0 ± 3.9 pmol/min/mg microsomal protein
same,"Vmax, formation of 9,10-Dihydro-phenanthene-diol RT = 3.38 min",[6]; substrate Phenanthrene,287.8 ± 17.1 pmol/min/mg microsomal protein
same,microsomal CLint,[7],24.2 µL/min/mg
same,Tumor-initiating activity,mouse skin,neither phenanthrene nor its monomethylated analogs
Cc1cccc2c1ccc1ccccc12 [1-Methylphenanthrene],Increase in the number of revertants compared to the concurrent solvent control,[1],≤ 6.8 fold
same,Mutagenicity (conclusion),[1],showed mutagenicity
same,Increase in revertants,S. typhimurium TA98; [9],8.4 fold
same,Increase in revertants,S. typhimurium TA98; ref LaVoie et al. [1983],3.2 fold
same,"Vmax, formation of 1-(Hydroxymethyl) phennathrene RT = 5.55 min",[3]; substrate 1-Methylphenanthrene,1926 ± 40.3 pmol/min/mg microsomal protein
same,"Vmax, formation of 1-Methylphenanthrol RT = 6.80 min",[3]; substrate 1-Methylphenanthrene,33.1 ± 2.1 pmol/min/mg microsomal protein
same,"Vmax, formation of 1-Methylphenanthrol RT = 6.92 min",[3]; substrate 1-Methylphenanthrene,24.0 ± 1.6 pmol/min/mg microsomal protein
same,"Vmax, formation of 1-Methylphenanthrol RT = 7.00 min",[3]; substrate 1-Methylphenanthrene,17.3 ± 1.2 pmol/min/mg microsomal protein
same,"Vmax, formation of 1-Methylphenanthrol RT = 7.29 min",[3]; substrate 1-Methylphenanthrene,9.0 ± 0.8 pmol/min/mg microsomal protein
same,"Vmax, formation of Dihydro-1-methylphenanthrene-diol RT = 3.43 min",[3]; substrate 1-Methylphenanthrene,4.2 ± 0.4 pmol/min/mg microsomal protein
same,"Vmax, formation of Dihydro-1-methylphenanthrene-diol RT = 3.96 min",[3]; substrate 1-Methylphenanthrene,5.2 ± 0.3 pmol/min/mg microsomal protein
same,"Vmax, formation of Dihydro-1-methylphenanthrene-diol RT = 4.35 min",[3]; substrate 1-Methylphenanthrene,16.1 ± 1.3 pmol/min/mg microsomal protein
same,"Vmax, formation of Dihydro-1-methylphenanthrene-diol RT = 4.76 min",[3]; substrate 1-Methylphenanthrene,14.0 ± 0.6 pmol/min/mg microsomal protein
same,Increase in the number of revertants compared to the concurrent solvent control,[4],up to 13 fold
same,Mutagenicity (conclusion),[4],showed mutagenicity
same,Increase in revertants,S. typhimurium TA100; [9],4.1 fold
same,Increase in revertants,S. typhimurium TA100; ref LaVoie et al. [1983],6.0 fold
same,"Vmax, formation of 1-(Hydroxymethyl) phennathrene RT = 5.55 min",[6]; substrate 1-Methylphenanthrene,475.3 ± 13.2 pmol/min/mg microsomal protein
same,"Vmax, formation of 1-Methylphenanthrol RT = 6.3 min",[6]; substrate 1-Methylphenanthrene,14.7 ± 0.8 pmol/min/mg microsomal protein
same,"Vmax, formation of 1-Methylphenanthrol RT = 6.80 min",[6]; substrate 1-Methylphenanthrene,77.3 ± 3.9 pmol/min/mg microsomal protein
same,"Vmax, formation of Dihydro-1-methylphenanthrene-diol RT = 2.32 min",[6]; substrate 1-Methylphenanthrene,27.5 ± 4.6 pmol/min/mg microsomal protein
same,"Vmax, formation of Dihydro-1-methylphenanthrene-diol RT = 4.35 min",[6]; substrate 1-Methylphenanthrene,20.6 ± 0.5 pmol/min/mg microsomal protein
same,Tumor-initiating activity,mouse skin,neither phenanthrene nor its monomethylated analogs
